Test results: publication PMC9054212, “Discovery of 4-(2-(dimethylamino)ethoxy)benzohydrazide derivatives as prospective microtubule affinity regulating kinase 4 inhibitors” (RSC Advances, 2020)
Where two headings read alike, the source gives them in different places.

Experiments:
MCF-7 cells [1] = assay: Colony formation assay, MCF-7; assay type: cell-based, human; conditions: IC50 concentration, 10–12 days, vs control
Description: (§1) The colony-forming assay was performed to evaluate the effect of selected compounds on cell colonization potential of cancer cells. Briefly, cells were plated at a density of 1000–2000 (A549/MCf-7) cells per well in a six-well cell culture plate. Cells were grown for at least 24 h in cell growth medium and then incubated with IC50 concentration of selected compounds for 10–12 days at 37 °C (in a humidified 5% CO2 incubator). Control cells were treated with an equal percentage of DMSO. After 10–12 days, the cell colonies were fixed with 100% methanol and staining was performed using 0.4% crystal violet in 25% methanol. The colonies obtained was counted, plotted and compared with the controls.

[2] = biological target: human serum albumin (HSA) (Homo sapiens, UniProt P02768); assay: Fluorescence quenching binding study with HSA; conditions: Stern–Volmer plot, ligand 0–20 μM, HSA 5–10 μM
Sequence of human serum albumin (HSA) (P02768 25-609): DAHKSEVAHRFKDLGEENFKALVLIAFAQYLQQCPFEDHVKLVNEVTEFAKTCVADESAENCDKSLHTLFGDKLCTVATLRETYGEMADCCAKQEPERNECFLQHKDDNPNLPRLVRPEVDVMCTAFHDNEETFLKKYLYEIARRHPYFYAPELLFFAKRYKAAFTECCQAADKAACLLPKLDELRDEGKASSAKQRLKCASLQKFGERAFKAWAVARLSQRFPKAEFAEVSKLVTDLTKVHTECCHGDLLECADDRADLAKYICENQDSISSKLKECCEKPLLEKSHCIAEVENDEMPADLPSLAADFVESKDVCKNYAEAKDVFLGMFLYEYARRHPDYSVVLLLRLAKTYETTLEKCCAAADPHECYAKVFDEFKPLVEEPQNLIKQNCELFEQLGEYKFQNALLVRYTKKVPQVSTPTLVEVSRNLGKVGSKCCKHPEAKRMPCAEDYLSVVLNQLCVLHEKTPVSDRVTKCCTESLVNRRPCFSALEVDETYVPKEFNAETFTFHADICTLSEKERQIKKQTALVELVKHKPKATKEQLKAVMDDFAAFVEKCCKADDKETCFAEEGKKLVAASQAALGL
Description: (§2) The binding affinity of selected hydrazone derivatives with human serum albumin (HSA) and MARK4 was carried out using fluorescence binding studies as described.[39] The values of binding constant (Ka) and a number of binding sites present in protein (n) were obtained by using the modified Stern–Volmer equation from the intercept and slope, respectively.
(§3) To measure the actual binding affinity of selected ligands with MARK4 and HSA, fluorescence quenching studies were performed.[43,44] Both MARK4 and HSA contain tryptophan residues, therefore it has been used as an intrinsic fluorophore to estimate the interaction of ligand. Protein was excited at 280 nm and the emission spectrum was recorded in 300–400 nm range. With increasing ligand concentrations (0–20 μM), the fluorescence intensity of MARK4 and HSA was decreases in a concentration-dependent manner (Fig. 3 and 4), indicating a considerable binding. Values of Ka and n were calculated from fluorescence emission spectra using the Stern–Volmer plot. […]
(§4) Fig. 4 Binding of compound H4 and H19 with HSA. (A) Fluorescence emission spectra of HSA (5–10 μM) with increasing concentrations of compound H4 and H19. (B) Stern–Volmer plot obtained from the fluorescence quenching data of HSA by compound H4 and H19, respectively. Protein sample was excited at 280 nm and emission for each titration was recorded in the range of 300–400 nm. […]

MCF-7 cells [3] = assay: Trans-well cell migration assay, MCF-7; assay type: cell-based, human; conditions: IC50 concentration, 24 h, Boyden chamber, vs control
Description: (§5) Trans-well migration assay was performed using a modified Boyden chamber containing cell culture inserts (8 μm pore size, polyethylene terephthalate track-etched membrane, BD Falcon #353093). Briefly, cells were serum-starved for 3–4 h, trypsinized and suspended in a serum-free medium. In the upper chamber of cell culture insert, an equal number of cells with the IC50 dose of selected compounds or DMSO (control) were plated and in the lower chamber of well plate, 10% FBS-DMEM (for chemotaxis movement) was added. The cells were allowed to migrate for 24 h in a humidified 5% CO2 incubator at 37 °C and the migrated cells (that invaded through membrane pores) onto the lower side of Trans-well cell culture insert were fixed with methanol and staining was performed using 0.4% crystal violet in 25% methanol. The remaining cells present on the upper side of the chamber were wiped off with the help of cell scrapper/tissue wipes. Finally, the migrated cells present on the lower surface of the cell culture insert were imaged using a light microscope and counted in 3–5 random fields.

A549 cells [4] = assay: Colony formation assay, A549; assay type: cell-based, human; conditions: IC50 concentration, 10–12 days, vs control
Description: as §1

MARK4 [5] = biological target: T1, MARK4 (Homo sapiens, UniProt Q96L34); assay: MARK4 ATPase enzyme inhibition assay; assay type: biochemical
T1 construct: MARK4 protein was expressed and purified by following previous protocols; made in house
T1 sequence (Q96L34 1-752): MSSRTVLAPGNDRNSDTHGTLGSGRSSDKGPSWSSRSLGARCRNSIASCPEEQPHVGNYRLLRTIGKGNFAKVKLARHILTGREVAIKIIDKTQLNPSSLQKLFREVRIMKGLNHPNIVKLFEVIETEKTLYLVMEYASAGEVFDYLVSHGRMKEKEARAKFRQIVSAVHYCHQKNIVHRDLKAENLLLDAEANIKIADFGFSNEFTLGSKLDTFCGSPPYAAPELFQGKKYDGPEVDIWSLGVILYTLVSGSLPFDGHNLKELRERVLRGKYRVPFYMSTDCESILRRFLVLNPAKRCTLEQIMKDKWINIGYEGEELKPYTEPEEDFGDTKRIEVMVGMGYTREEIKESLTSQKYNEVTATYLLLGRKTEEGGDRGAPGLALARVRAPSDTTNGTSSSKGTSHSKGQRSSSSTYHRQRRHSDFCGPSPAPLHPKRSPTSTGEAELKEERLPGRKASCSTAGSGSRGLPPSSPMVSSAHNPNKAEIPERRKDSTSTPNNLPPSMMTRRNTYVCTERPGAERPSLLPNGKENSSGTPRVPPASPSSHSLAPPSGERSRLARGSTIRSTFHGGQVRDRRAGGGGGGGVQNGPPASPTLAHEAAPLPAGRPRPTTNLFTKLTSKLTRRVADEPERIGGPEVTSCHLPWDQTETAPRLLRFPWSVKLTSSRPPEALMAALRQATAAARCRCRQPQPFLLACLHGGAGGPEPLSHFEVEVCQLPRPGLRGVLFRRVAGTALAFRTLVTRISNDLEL
Description: MARK4 protein was expressed and purified by following previous protocols.[27,37] The purity of the protein was further confirmed by a single band shown by SDS PAGE. ATPase assay was carried out to evaluate the enzyme activity of MARK4 in the presence of selected hydrazone derivatives. The activity of MARK4 was studied with the increasing concentration of each selected hydrazone derivative by following our published protocol.[24,38]
To further evaluate the inhibitory potential of selected compounds with MARK4, enzyme inhibition assay was performed (at a single dose of 10 μM). […] Thus, these two compounds were further selected and evaluated with MARK4 in a concentration-dependent manner. […] The percent inhibition of ATPase activity was plotted as a function of ligand concentration and used to estimate IC50 (concentration of 50% inhibition, Fig. 1A).

HEK293 cells = assay: MTT cell viability assay, non-cancerous HEK293; assay type: cell-based, human; conditions: at the IC50 or active concentration, compared with cancerous cells
Description: (§6) Human cell lines (HEK-293, A549 and MCF-7) were seeded and maintained in a medium supplemented with DMEM along with 10% heat-inactivated fetal bovine serum (Gibco) and 1% penicillin, streptomycin solution (Gibco), cultured in a 5% CO2 humidified incubator at 37 °C. Cell cultures were maintained and trypsinized regularly, not for more than 30 passages. MTT assay was carried out to see the effect of selected hydrazone compound treatment on the viability of non-cancerous (HEK-293) and cancerous cell lines (A549 and MCF-7) as per described method.[22,24] In brief, 6000–7000 cells per well were seeded in a 96-well plate and after 24 h growth, the cells were treated with increasing concentrations (0–200 μM) of each hydrazone (final volume of 200 μL) for 48 h at 37 °C in a humidified chamber. After 48 h, MTT was added (20 μL solution from 5 mg mL^−1 stock solution prepared in phosphate buffer saline, pH 7.4) to each well and plates were further incubated for 4–5 h at 37 °C in a CO2 incubator. The supernatant was aspirated and the formazan crystals were dissolved in 150 μL of DMSO. The absorbance (A) of final products was measured using multiplate ELISA reader (BioRad) at 570 nm. The percentage of cell viability was calculated and IC50 (50% inhibitory concentration) values of each hydrazone derivative were estimated (paclitaxel was taken as a positive control for cell proliferation studies).

A549 cells [6] = assay: Trans-well cell migration assay, A549; assay type: cell-based, human; conditions: IC50 concentration, 24 h, Boyden chamber, vs control
Description: as §5

A549 cells [7] = assay: Annexin-V/PI apoptosis assay by flow cytometry, A549; assay type: cell-based, human; conditions: IC50 concentration, 48 h
Description: (§7) Annexin-V staining was used to assess the apoptotic potential of the selected hydrazones as described.[22,41] Briefly, cells were treated with IC50 concentration of selected hydrazones for 24 h and control cells were treated with DMSO/culture medium only. After 24 h incubation, approximately 2.0–2.5 × 10^6 cells were collected by trypsinization and washed twice with PBS (5–10 mL). Finally, FITC labelled Annexin-V and PE labelled PI was used for staining the cells using the FITC-Annexin-V kit by following manufacture instructions (BD-Biosciences, USA). Nearly, 10 000 events were recorded using BD LSR II Flow Cytometry Analyzer and analyzed by FlowJo software.
(§8) Cancer cells support their growth and maintenance by evading the apoptotic pathways.[48] MARK4 regulates the cancer cell growth and proliferation via modulating the apoptotic pathways.[12,15,46] The treatment of MCF-7 and A549 cells with H4 and H19 inhibit the activity of MARK4, decreases cell proliferation and migration raises the evaluation of these MARK4 inhibitors for the apoptosis induction. Thus, to investigate whether the selected inhibitor induces cell death via apoptosis or not, we have performed Annexin-V/PI staining using flow cytometry. Cells were treated with IC50 concentration of each molecule for 48 h and processed for apoptosis analysis. […]

MCF-7 cells [8] = assay: MTT cell proliferation assay, MCF-7; assay type: cell-based; conditions: Homo sapiens, read-out: IC50, cell proliferation, MCF-7 cells
Description: as §6

A549 cells [9] = assay: MTT cell proliferation assay, A549; assay type: cell-based; conditions: Homo sapiens, read-out: IC50, cell proliferation, A549 cells
Description: as §6

MARK4 [10] = biological target: T1, MARK4; assay: Fluorescence quenching binding study with MARK4; conditions: Stern–Volmer plot, ligand 0–20 μM, MARK4 5 μM
Description: as §2, §3
as §4, with “Fig. 3” for “Fig. 4”, “with MARK4.” for “with HSA.”, “of MARK4 (5” for “of HSA (5–10”, “of MARK4” for “of HSA”

[11] = system: MARK4 and p-tau in MCF-7 cells; assay: Immunoblotting of MARK4 and p-tau in treated MCF-7 cells; assay type: cell-based, human; conditions: IC50 concentration, vs control
Description: The compound treated cell line samples were lysed in RIPA cell lysis buffer (Thermo Fisher Scientific, USA) in an ice-cold condition using ultrasonication. Total protein was isolated and protein estimation was performed using Bicinchoninic Acid Assay (BCA-protein estimation kit). Nearly 30–40 μg of whole protein lysate was diluted with 6× Laemmli's buffer, boiled for 3–5 min and resolved using 10–12% SDS-polyacrylamide electrophoresis under reducing conditions. The resolved polypeptides were transferred to polyvinylidene fluoride (PVDF) membrane through blotting, peptide-specific primary antibodies were used for identification and horseradish peroxidase coupled conjugates were used for visualization using luminol as a chemiluminescent substrate.[40]
Next, we tried to see the inhibition potential of these molecules at the cellular level. Cells were treated with IC50 concentration of each molecule and processed for the expression studied of MARK4 and p-tau (substrate of MARK4). […] Phosphorylation of tau correspondingly decreases in the treated cells as compared to control (Fig. 1B).

MCF-7 cells [12] = assay: Annexin-V/PI apoptosis assay by flow cytometry, MCF-7; assay type: cell-based, human; conditions: IC50 concentration, 48 h
Description: as §7, §8

[13] = bound stated after screen at a single dose of 10 μM, read-out: IC50, MARK4 enzyme inhibition
[14] = cell-free, concentration-dependent, read-out: IC50, inhibition of ATPase activity of MARK4

Row | melting point | Structure (SMILES) | number of colonies, MCF-7 (MCF-7 cells [1]) | cell migration, MCF-7 (MCF-7 cells [3]) | number of colonies, A549 (A549 cells [4]) | IC50 (MARK4 [5]; [13]) | IC50 (MARK4 [5]; [14]) | cytotoxicity to non-cancerous cells (HEK293 cells) | cell migration, A549 (A549 cells [6]) | apoptosis induced, share of A549 cells (A549 cells [7]) | protein level of MARK4 [11] | protein level of p-tau [11] | apoptosis induced, share of MCF-7 cells (MCF-7 cells [12]) | also measured
1 | 125 to 130 °C | CN(C)CCOc1ccc(C(=O)NN=Cc2cccc([N+](=O)[O-])c2)cc1 [H5] |  |  |  |  |  |  |  |  |  |  |  | 
2 | 96 to 100 °C | CN(C)CCOc1ccc(C(=O)NN=Cc2ccc([N+](=O)[O-])cc2)cc1 [H6] |  |  |  |  |  |  |  |  |  |  |  | 
3 |  | Cc1cc(C)c(C=NNC(=O)c2ccc(OCCN(C)C)cc2)c(C)c1 [H19] | significantly decreased | lesser number of cells were migrated | significantly decreased | < 1 µM | 0.215 µM | less toxic | lesser number of cells were migrated | 24.25% | decreases | decreases | 26.71% | Kd ([2]; read-out: binding constant Ka for HSA (converted)): 7.69 µM; IC50 (MCF-7 cells [8]; MCF7, 48 h): 34.4 µM; IC50 (A549 cells [9]; A549, 48 h): 61.5 µM; Kd (MARK4 [10]; read-out: binding constant Ka for MARK4 (converted)): 0.0104 µM
4 | 109 to 114 °C | CN(C)CCOc1ccc(C(=O)NN=Cc2ccc(O)cc2)cc1 [H8] |  |  |  |  |  |  |  |  |  |  |  | 
5 | 149 to 153 °C | CN(C)CCOc1ccc(C(=O)NN=Cc2ccccc2O)cc1 [H7] |  |  |  |  |  |  |  |  |  |  |  | 
6 |  | CN(C)CCOc1ccc(C(=O)NN=Cc2ccc(Cl)cc2)cc1 [H4] | significantly decreased | lesser number of cells were migrated | significantly decreased | < 1 µM | 0.149 µM | less toxic | lesser number of cells were migrated | 28.5% | decreases | decreases | 30.29% | binding constant Ka for HSA [2]: 443000 M⁻¹; IC50 (MCF-7 cells [8]; MCF7, MTT, 48 h, 0–200 μM): 27.4 µM; IC50 (A549 cells [9]; A549, MTT, 48 h, 0–200 μM): 45.2 µM; binding constant Ka for MARK4 (MARK4 [10]): 4.07e+09 M⁻¹
